We go through 13 molecules from patent US20230115534A1 (ARKUDA THERAPEUTICS, priority 2019, published 2023).

Structures can show the parent of a compound that is named as a salt. Where only a bound is given, the exact number is not on record here.

The test deals with progranulin (PGRN). The experiment in a line: progranulin induction cellular assay (PGRN assay), ELISA-based readout. The settings on record: PGRN assay as described: mouse primary microglia, primary cortical neurons and BV-2 cell lines; secreted mouse PGRN in medium by ELISA; cell type for Table B not specified. On the procedure:
Cellular Assays: To measure the efficacy of compounds, a progranulin induction cellular assay in mouse primary microglia (pMG), primary cortical neurons, and BV-2 cell lines is used. BV-2 cells are split the day before plating into a 96 well plate format at approximately 80%. Cells should be plated the day before and allowed for 1 hour attachment period and for 16 hour incubation. Levels of progranulin secreted into the cell culture medium or retained in the cell lysate can be quantified using an ELISA-based readout and measurement of secreted mouse PGRN in the medium was assessed by the methodology published by Ghidoni et al. 2012. Standard ELISA kits to measure PGRN are available from vendors such as Adipogen, R&D, and Biovendor.
Table B below presents the results of a PGRN assay as described above.
For `O=C(NC12CC(N3CCOCC3)(C1)C2)N1CCc2ccccc2[C@@H]1c1ccc(F)cc1` [Compound 4013, (S)-1-(4-fluorophenyl)-N-(3-morpholinobicyclo[1.1.1]pentan-1-yl)-3,4-dihydroisoquinoline-2(1H)-carboxamide], the EC50 is above 10000 nM.

In turn, `O=C(O[C@H]1C[C@@H](NCCO)C1)N1CCc2ccccc2[C@@H]1c1ccc(F)cc1` [Compound 4145, cis-3-((2-hydroxyethyl)amino)cyclobutyl (S)-1-(4-fluorophenyl)-3,4-dihydroisoquinoline-2(1H)-carboxylate] registered an EC50 of 191 nM.

Molecule `N[C@H]1C[C@@H](NC(=O)N2CCc3ccccc3[C@@H]2c2ccc(F)cc2)C1` [Compound 4034, (S)—N-(cis-3-aminocyclobutyl)-1-(4-fluorophenyl)-3,4-dihydroisoquinoline-2(1H)-carboxamide] returned an EC50 of 370 nM. Compared with the last molecule, the EC50 is about 1.9-fold higher.

`N[C@H]1C[C@H](COC(=O)N2CCc3ccccc3[C@@H]2c2ccc(F)cc2)C1` [Compound 4047, (Trans-3-aminocyclobutyl)methyl (S)-1-(4-fluorophenyl)-3,4-dihydroisoquinoline-2(1H)-carboxylate] registered an EC50 of 1640 nM.

`N[C@H]1CC[C@H]1COC(=O)N1CCc2ccccc2[C@@H]1c1ccc(F)cc1` [Compound 4133, ((1R,2S)-2-aminocyclobutyl)methyl (S)-1-(4-fluorophenyl)-3,4-dihydroisoquinoline-2(1H)-carboxylate] had an EC50 of 864 nM.

As for `O=C(OC12CC(N3CCCC3=O)(C1)C2)N1CCc2ccccc2[C@@H]1c1ccc(F)cc1` [Compound 4025, 3-(2-Oxopyrrolidin-1-yl)bicyclo[1.1.1]pentan-1-yl (S)-1-(4-fluorophenyl)-3,4-dihydroisoquinoline-2(1H)-carboxylate], the EC50 is above 10000 nM.

Molecule `CN(C(=O)N1CCc2ccccc2[C@@H]1c1ccc(F)cc1)[C@H]1C[C@H](N)C1` [Compound 4055, (S)—N-((trans)-3-aminocyclobutyl)-1-(4-fluorophenyl)-N-methyl-3,4-dihydroisoquinoline-2(1H)-carboxamide] came in with an EC50 of 160 nM.

The molecule `NC[C@]1(O)C[C@H](C(=O)N2CCc3ccccc3[C@@H]2c2ccc(F)cc2)C1` [Compound 4154, (trans-3-(aminomethyl)-3-hydroxycyclobutyl)((S)-1-(4-fluorophenyl)-3,4-dihydroisoquinolin-2(1H)-yl)methanone] had an EC50 of 112 nM. The EC50 values of the last two molecules are within 1.5-fold of each other.

The molecule `CNC12CC(NC(=O)N3CCc4ccccc4[C@@H]3c3ccc(F)cc3)(C1)C2` [Compound 4004, (S)-1-(4-fluorophenyl)-N-(3-(methylamino)bicyclo[1.1.1]pentan-1-yl)-3,4-dihydroisoquinoline-2(1H)-carboxamide] came in with a 50% effective concentration (EC50) of 225 nM.

For `CN(C)[C@H]1C[C@@H](NC(=O)N2CCc3ccccc3[C@@H]2c2ccc(F)cc2)C1` [Compound 4069], it took 672 nM to reach a half-maximal effect (EC50).

Molecule `NC[C@H]1C[C@@H](C(=O)N2CCc3ccccc3[C@@H]2c2ccc(F)cc2)C1` [Compound 4150, (cis-3-(aminomethyl)cyclobutyl)((S)-1-(4-fluorophenyl)-3,4-dihydroisoquinolin-2(1H)-yl)methanone] yielded an EC50 of 79 nM.

The molecule `CN(C)C12CC(NC(=O)N3CCc4ccccc4[C@@H]3c3ccc(F)cc3)(C1)C2` [Compound 4022, (S)—N-(3-(dimethylamino)bicyclo[1.1.1]pentan-1-yl)-1-(4-fluorophenyl)-3,4-dihydroisoquinoline-2(1H)-carboxamide] returned an EC50 of 5330 nM.

`CN[C@H]1C[C@H](N(C)C(=O)N2CCc3ccccc3[C@@H]2c2ccc(F)cc2)C1` [Compound 4044, (S)-1-(4-fluorophenyl)-N-methyl-N-((trans)-3-(methylamino)cyclobutyl)-3,4-dihydroisoquinoline-2(1H)-carboxamide hydrochloride]: the EC50 amounted to 1030 nM.
